In the NIST ThermoML archive (doi:10.1021/je5009334):

Experiment: xn = mol fraction of the nth substance listed
Settings: 101 kPa, Liquid; for speed of sound: Sing-around technique in a fixed-path interferometer; for mass density: Vibrating tube method

OCCc1ccccc1 [2-phenylethanol] + CCC(O)CO
Settings | mass density [kg/m3] | speed of sound [m/s]
298.15 K, x1 = 0.1 | 1000.43 | 1461.6
298.15 K, x1 = 0.2 | 1002.46 | 1471.1
298.15 K, x1 = 0.3 | 1004.33 | 1479.4
298.15 K, x1 = 0.4 | 1006.16 | 1487.8
298.15 K, x1 = 0.5 | 1007.9 | 1495.7
298.15 K, x1 = 0.6 | 1009.62 | 1502.9
298.15 K, x1 = 0.7 | 1011.27 | 1509.7
298.15 K, x1 = 0.8 | 1012.87 | 1515.6
298.15 K, x1 = 0.9 | 1014.52 | 1521.3
298.15 K, x1 = 1 | 1016.14 | 1526.1
303.15 K, x1 = 0.1 | 996.641 | 1446.7
303.15 K, x1 = 0.2 | 998.651 | 1456.2
303.15 K, x1 = 0.3 | 1000.5 | 1464.1
303.15 K, x1 = 0.4 | 1002.32 | 1472.3
303.15 K, x1 = 0.5 | 1004.07 | 1480
303.15 K, x1 = 0.6 | 1005.79 | 1487.1
303.15 K, x1 = 0.7 | 1007.45 | 1494.1
303.15 K, x1 = 0.8 | 1009.06 | 1499.7
303.15 K, x1 = 0.9 | 1010.73 | 1505.3
303.15 K, x1 = 1 | 1012.39 | 1510.5
308.15 K, x1 = 0.1 | 992.825 | 1431.8
308.15 K, x1 = 0.2 | 994.816 | 1441.2
308.15 K, x1 = 0.3 | 996.652 | 1448.9
308.15 K, x1 = 0.4 | 998.462 | 1456.9
308.15 K, x1 = 0.5 | 1000.2 | 1464.5
308.15 K, x1 = 0.6 | 1001.93 | 1471.4
308.15 K, x1 = 0.7 | 1003.61 | 1478.4
308.15 K, x1 = 0.8 | 1005.25 | 1483.8
308.15 K, x1 = 0.9 | 1006.92 | 1489.5
308.15 K, x1 = 1 | 1008.61 | 1494.7
313.15 K, x1 = 0.1 | 988.976 | 1417.1
313.15 K, x1 = 0.2 | 990.951 | 1426.2
313.15 K, x1 = 0.3 | 992.775 | 1433.8
313.15 K, x1 = 0.4 | 994.579 | 1441.5
313.15 K, x1 = 0.5 | 996.32 | 1449
313.15 K, x1 = 0.6 | 998.053 | 1455.8
313.15 K, x1 = 0.7 | 999.73 | 1462.3
313.15 K, x1 = 0.8 | 1001.39 | 1468.1
313.15 K, x1 = 0.9 | 1003.09 | 1473.8
313.15 K, x1 = 1 | 1004.75 | 1479.2
318.15 K, x1 = 0.1 | 985.093 | 1402.3
318.15 K, x1 = 0.2 | 987.058 | 1411.3
318.15 K, x1 = 0.3 | 988.872 | 1418.7
318.15 K, x1 = 0.4 | 990.674 | 1426.3
318.15 K, x1 = 0.5 | 992.412 | 1433.5
318.15 K, x1 = 0.6 | 994.121 | 1440.5
318.15 K, x1 = 0.7 | 995.794 | 1446.4
318.15 K, x1 = 0.8 | 997.515 | 1452.4
318.15 K, x1 = 0.9 | 999.245 | 1458.1
318.15 K, x1 = 1 | 1000.93 | 1463.2
323.15 K, x1 = 0.1 | 981.261 | 1388.2
323.15 K, x1 = 0.2 | 983.126 | 1396
323.15 K, x1 = 0.3 | 984.949 | 1403.8
323.15 K, x1 = 0.4 | 986.752 | 1411.3
323.15 K, x1 = 0.5 | 988.495 | 1418.6
323.15 K, x1 = 0.6 | 990.215 | 1425.2
323.15 K, x1 = 0.7 | 991.945 | 1431.3
323.15 K, x1 = 0.8 | 993.644 | 1437.1
323.15 K, x1 = 0.9 | 995.386 | 1442.8
323.15 K, x1 = 1 | 997.075 | 1447.7

CC(O)CCO (stereo not given) [1,3-butanediol] + CCC(O)CO
Settings | mass density [kg/m3] | speed of sound [m/s]
298.15 K, x2 = 0 | 1001.82 | 1527.8
298.15 K, x2 = 0.1 | 1001.83 | 1523.2
298.15 K, x2 = 0.2 | 1001.78 | 1517.9
298.15 K, x2 = 0.3 | 1001.74 | 1512.7
298.15 K, x2 = 0.4 | 1001.61 | 1507.1
298.15 K, x2 = 0.5 | 1001.24 | 1498.9
298.15 K, x2 = 0.6 | 1000.94 | 1492.2
298.15 K, x2 = 0.7 | 1000.36 | 1482.6
298.15 K, x2 = 0.8 | 999.812 | 1473.2
298.15 K, x2 = 0.9 | 999.175 | 1463.1
303.15 K, x2 = 0 | 998.418 | 1514.1
303.15 K, x2 = 0.1 | 998.382 | 1509
303.15 K, x2 = 0.2 | 998.283 | 1503.9
303.15 K, x2 = 0.3 | 998.2 | 1498.2
303.15 K, x2 = 0.4 | 998.02 | 1492.5
303.15 K, x2 = 0.5 | 997.617 | 1484.3
303.15 K, x2 = 0.6 | 997.284 | 1477.4
303.15 K, x2 = 0.7 | 996.675 | 1468
303.15 K, x2 = 0.8 | 996.1 | 1458.5
303.15 K, x2 = 0.9 | 995.436 | 1448.3
308.15 K, x2 = 0 | 994.987 | 1500.2
308.15 K, x2 = 0.1 | 994.902 | 1494.9
308.15 K, x2 = 0.2 | 994.756 | 1489.6
308.15 K, x2 = 0.3 | 994.626 | 1483.8
308.15 K, x2 = 0.4 | 994.403 | 1478
308.15 K, x2 = 0.5 | 993.965 | 1469.7
308.15 K, x2 = 0.6 | 993.596 | 1462.7
308.15 K, x2 = 0.7 | 992.955 | 1453.3
308.15 K, x2 = 0.8 | 992.352 | 1443.8
308.15 K, x2 = 0.9 | 991.664 | 1433.7
313.15 K, x2 = 0 | 991.528 | 1486.3
313.15 K, x2 = 0.1 | 991.39 | 1480.8
313.15 K, x2 = 0.2 | 991.196 | 1475.3
313.15 K, x2 = 0.3 | 991.02 | 1469.3
313.15 K, x2 = 0.4 | 990.753 | 1463.5
313.15 K, x2 = 0.5 | 990.276 | 1455.1
313.15 K, x2 = 0.6 | 989.874 | 1448
313.15 K, x2 = 0.7 | 989.201 | 1438.5
313.15 K, x2 = 0.8 | 988.572 | 1429.1
313.15 K, x2 = 0.9 | 987.858 | 1419
318.15 K, x2 = 0 | 988.035 | 1472.3
318.15 K, x2 = 0.1 | 987.845 | 1466.5
318.15 K, x2 = 0.2 | 987.595 | 1460.6
318.15 K, x2 = 0.3 | 987.379 | 1454.9
318.15 K, x2 = 0.4 | 987.07 | 1449
318.15 K, x2 = 0.5 | 986.554 | 1440.5
318.15 K, x2 = 0.6 | 986.118 | 1433.3
318.15 K, x2 = 0.7 | 985.412 | 1423.9
318.15 K, x2 = 0.8 | 984.756 | 1414.3
318.15 K, x2 = 0.9 | 984.01 | 1404.4
323.15 K, x2 = 0 | 984.506 | 1458.3
323.15 K, x2 = 0.1 | 984.262 | 1452.5
323.15 K, x2 = 0.2 | 983.961 | 1446.2
323.15 K, x2 = 0.3 | 983.701 | 1440.4
323.15 K, x2 = 0.4 | 983.35 | 1434.3
323.15 K, x2 = 0.5 | 982.795 | 1425.8
323.15 K, x2 = 0.6 | 982.326 | 1418.6
323.15 K, x2 = 0.7 | 981.586 | 1409.1
323.15 K, x2 = 0.8 | 980.82 | 1399.6
323.15 K, x2 = 0.9 | 980.034 | 1390.1
